Measured values reported in patent US6458806B1, “Aryl alkenamides derivatives as MCP-1 antagonists” (Millennium Pharmaceuticals, Inc., priority 1996, dated 2002).
Where a name gives a salt, the structure may show the parent alone.

How the values were obtained:
[1] = tested on: T cell recruitment to skin DHR sites; test: Inhibition of T cell recruitment to rat skin inflammatory (DHR) sites; type: in vivo
Procedure: Inhibition of T Cell Recruitment to Rat Skin Inflammatory Sites by Compound 1
Inbred, approximately 200 gm, male Lewis rats were used in all experiments. Cutaneous delayed hypersensitivity (DHR) was induced as previously described (1). Briefly, rats were sensitized to KLH (Sigma Chemical Co., St. Louis, Mo.) by administering 50 μg KLH in 0.1 ml complete Freund's adjuvant (CFA; Sigma Chemical Co.) into each of 4 subcutaneous sites. After 14 days, DHR was elicited by the challenge of 5 μg KLH in PBS into multiple intradermal sites on the back. Analysis was performed 24 hours after antigen challenge. For each experiment, there were at least three groups of animals of at least four animals in each group. […]
T cell recruitment at sites of DHR was quantified using methods previously described (1-4). […] The cells in the effluent were highly purified (>95%) rat T cells as assessed by anti-rat CD3 (monoclonal antibody KT3, Biosource International, Camarillo, Calif.) immunoreactivity by flow cytometry. […] Skin challenge sites (8 mm in diameter) were counted on a γ counter 24 hours after injection of radiolabeled T cells. Lung, liver, and spleen were also collected and counted as comparative indices for evaluation of input.
Statistical significance was determined using a paired Student's t-test. […]

MCP-1 receptor = biological target: T1, MCP-1 receptor (Homo sapiens, UniProt P41597); test: MCP-1 binding assay (125I-MCP-1, THP-1 cell membranes); conditions: 0.2 nM 125I-labeled MCP-1, averages of several or two experiments, read-out: Inhibition Of MCP-1 Binding IC50
T1 construct: host or cells: THP-1 cell membranes
T1 sequence (P41597 whole entry): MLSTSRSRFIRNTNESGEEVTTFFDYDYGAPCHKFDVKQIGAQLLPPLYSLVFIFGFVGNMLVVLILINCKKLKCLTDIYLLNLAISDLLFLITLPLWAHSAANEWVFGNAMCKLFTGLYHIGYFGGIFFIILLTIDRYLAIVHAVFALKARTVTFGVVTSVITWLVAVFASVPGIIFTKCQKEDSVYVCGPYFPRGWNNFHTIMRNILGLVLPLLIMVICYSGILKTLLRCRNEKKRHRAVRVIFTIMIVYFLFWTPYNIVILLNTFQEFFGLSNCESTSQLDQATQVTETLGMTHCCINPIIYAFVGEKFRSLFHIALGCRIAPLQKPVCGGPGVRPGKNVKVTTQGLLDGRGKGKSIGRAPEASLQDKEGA
Procedure: Membranes used in the MCP-1 binding assay were prepared from THP-1 cells (human monocytic cell line source—American Type Culture Collection, Tumor Immunology Bank #202, Rockville, Md., accession no. ATCC TIB 202). Cells were harvested by centrifugation and washed twice in ice-cold PBS (phosphate-buffered saline) and the cell pellet was frozen at −80° C. in some cases. Cells were resuspended in ice-cold lysis buffer 5mM HEPES (2-(4N-,[2-hydroxyethyl] piperazin-1-yl)-N′-(2-ethanesulfonic acid), pH 7.5, 2 mM EDTA (ethylenediaminetetraacetic acid), 5 ug/ml each leupeptin, aprotinin, chymostatin (protease inhibitors), and 100 ug/ml PMSF (phenylmethane sulfonyl fluoride—also a protease inhibitor)) at a concentration of 5×10^7 cells/ml. […] Typical binding assays used 10-20 ug/well of total membrane protein as determined with a standard protein assay (e.g. BioRad, Richmond, Calif.).
For binding, 10-20 ug total membrane protein were included in the binding reaction along with 0.2 nM I^125-labeled MCP-1 (Amersham, Arlington Heights, Ill.) with or without unlabeled competitor MCP-1 (Peprotech, Rocky Hill, N.J.) (at 250-500 nM). […] Filters were dried and counted in a Beta-Plate scintillation counter using standard scintillation fluid. […]
IC50s were calculated using a non-linear 3-parameter logistic curve fit. […]

O=C(/C=C/C=C/c1ccc(Cl)c(Cl)c1)NCCCN1CCCCC1 [Example 1, 5-(3,4-Dichloro-phenyl)-penta-2,4-dienoic Acid (3-piperidin-1-yl-propyl)-amide-HCl]
inhibition of T cell recruitment in rat DHR (result in words) ([1]; 30 mg/kg per os at time of antigen challenge, 24 hour period, FIG. 2): statisticallly significant inhibitory effect
inhibition of recruitment of 111In-labeled rat T cells to skin DHR sites ([1]; Lewis rats, 30 mg/kg once per os at time of antigen (KLH) challenge, 24 hours, P<0.05, dose-dependent): approximately 80%
IC50 (MCP-1 receptor): 2.2 µM
